US12264156B2, “Compounds and pharmaceutical compositions thereof for the treatment of diseases” (GALAPAGOS NV, priority 2018, dated 2025)

What was measured:
[1] = target: T1, SIK2 (Homo sapiens, UniProt Q9H0K1); assay: ADP-Glo kinase assay, SIK2; assay type: biochemical; conditions: ADP-Glo SIK kinase assay
T1 construct: purchased ThermoFisher Scientific PV4792
How it was run: (§1)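 ADP-Glo, RT throughout. Enz/substrate + ATP, 120 min; ADP-Glo reagent 40 min (ATP depletion); detection reagent 30 min; luminescence read. Neg ctrl 1% DMSO, pos ctrl 10 μM staurosporine, final concs.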

[2] = tested on: LPS triggered IL-10 secretion in monocyte-derived macrophages (MdM); assay: MdM assay: LPS-triggered IL-10 (ELISA); assay type: cell-based, human; conditions: LPS 200 ng/mL, supernatant after 2 h, maximal fold change vs LPS only
Procedure: SIK inhibition inhibits TNFα and increases IL-10 release in LPS triggered monocyte-derived macrophages (MdM) and dendritic […] al. 2012; Sundberg et al. 2014; Ozanne et al. 2015). This assay evaluates illustrative compounds of the invention for their inhibition of LPS-induced TNFα and LPS triggered IL-10 secretion in monocyte-derived macrophages. PBMCs are isolated from human blood samples (buffycoats). The buffy coat is aseptically transferred into a 50 mL Falcon tube, and diluted 1/2 in PBS. Falcon tubes are filled with 20 mL LymphoprepTM, on top of which 25 mL of the buffy coat is carefully added, tubes are centrifuged for 35 min at 400 g in temperature controlled centrifuge, without brake, at 25° C. PBMCs are aspirated from the white interface layer between sample and LymphoprepTM. PBMCs are washed five times in PBS. Cells are resuspended in RPMI 1640 complete medium supplemented with 10% FBS, 1% P/S, and cell density is determined using a hematologic analyzer (Sysmex XS-500i). PBMCs are centrifuged at 300×g for 10 min and resuspended at a density of 1.0*10^7 cells/80 μL Miltenyi buffer (PBS, pH 7.4, 1% FBS, 2 mM EDTA). Starting from this point of the protocol all steps are performed on ice. 20 μL of CD14+ micro-beads are added per 1.0*10^7 cells, the tube is mixed and incubated for 15 min in the fridge at 4° C. Cell suspension volume is adjusted to total volume of 100 mL using Miltenyi buffer, mixed gently and subsequently centrifuged for 10 min at 300×g. Supernantant is discarded and cell pellet is resuspended in 12 mL of Miltenyi buffer. Four LS columns are placed in the MACS Separator (magnet) from Miltenyi Biotec, and are prewet by rinsing with 3 mL of MACS buffer per column. Three mL of cell suspension is added onto the column (max 1*10^8 of labelled cells/column), and columns are subsequently washed 3 times with 3 mL of Miltenyi buffer. The columns are removed from the magnets, and 5 mL of Miltenyi buffer are added to the column to flush out the CD14+ fraction by pushing the plunger into the column. The flushed fractions are collected in a fresh 50 mL Falcon and volume is adjusted to 30 mL using Miltenyi buffer, cells are centrifuged for 10 min at 300×g. The obtained cell pellet is resuspended in 10 mL RPMI w/o FBS, and cell density is determined using a hematologic analyser (Sysmex XS-500i). 100 000 cells are seeded per well of a 96-well plate for differentiation to MdM in RPMI 1640 medium supplemented with 10% FBS, 1% P/S and 100 ng/mL rhM-CSF. On day 5 the medium is refreshed with 100 μL RPMI 1640 medium supplemented with 10% FBS, 1% P/S and 100 ng/mL rhM-CSF. On day 10, MdMs are triggered and compound is added. A compound dilution plate is made in 100% DMSO by 3-fold dilution of 10 mM stock solution. An intermediate dilution plate (10× final concentration) is made by diluting the compound dilution plate 50-fold in RPMI medium. Medium is carefully removed from cell plates using multichannel pipette, and replaced by 80 μL fresh medium. 10 μL of the 10× final concentration compound is added to the cells and incubated for 1 hour at 37° C. before addition of trigger. No trigger conditions/trigger conditions are spiked with equal final DMSO concentrations of 0.2% DMSO. 10 μL of 10×LPS (final conc. 200 ng/mL) solution are added to all wells except for the 'no trigger wells' where 10 μL medium is added. Supernatant is collected after 2 h (IL-10 determination) and after 20 h (TNFα determination) of LPS triggering. […]

[3] = target: T2, SIK3 (Homo sapiens, UniProt Q9Y2K2); assay: ADP-Glo kinase assay, SIK3; assay type: biochemical; conditions: ADP-Glo SIK kinase assay
T2 construct: purchased SignalChem S12-11G-100
T2 sequence (Q9Y2K2 whole entry): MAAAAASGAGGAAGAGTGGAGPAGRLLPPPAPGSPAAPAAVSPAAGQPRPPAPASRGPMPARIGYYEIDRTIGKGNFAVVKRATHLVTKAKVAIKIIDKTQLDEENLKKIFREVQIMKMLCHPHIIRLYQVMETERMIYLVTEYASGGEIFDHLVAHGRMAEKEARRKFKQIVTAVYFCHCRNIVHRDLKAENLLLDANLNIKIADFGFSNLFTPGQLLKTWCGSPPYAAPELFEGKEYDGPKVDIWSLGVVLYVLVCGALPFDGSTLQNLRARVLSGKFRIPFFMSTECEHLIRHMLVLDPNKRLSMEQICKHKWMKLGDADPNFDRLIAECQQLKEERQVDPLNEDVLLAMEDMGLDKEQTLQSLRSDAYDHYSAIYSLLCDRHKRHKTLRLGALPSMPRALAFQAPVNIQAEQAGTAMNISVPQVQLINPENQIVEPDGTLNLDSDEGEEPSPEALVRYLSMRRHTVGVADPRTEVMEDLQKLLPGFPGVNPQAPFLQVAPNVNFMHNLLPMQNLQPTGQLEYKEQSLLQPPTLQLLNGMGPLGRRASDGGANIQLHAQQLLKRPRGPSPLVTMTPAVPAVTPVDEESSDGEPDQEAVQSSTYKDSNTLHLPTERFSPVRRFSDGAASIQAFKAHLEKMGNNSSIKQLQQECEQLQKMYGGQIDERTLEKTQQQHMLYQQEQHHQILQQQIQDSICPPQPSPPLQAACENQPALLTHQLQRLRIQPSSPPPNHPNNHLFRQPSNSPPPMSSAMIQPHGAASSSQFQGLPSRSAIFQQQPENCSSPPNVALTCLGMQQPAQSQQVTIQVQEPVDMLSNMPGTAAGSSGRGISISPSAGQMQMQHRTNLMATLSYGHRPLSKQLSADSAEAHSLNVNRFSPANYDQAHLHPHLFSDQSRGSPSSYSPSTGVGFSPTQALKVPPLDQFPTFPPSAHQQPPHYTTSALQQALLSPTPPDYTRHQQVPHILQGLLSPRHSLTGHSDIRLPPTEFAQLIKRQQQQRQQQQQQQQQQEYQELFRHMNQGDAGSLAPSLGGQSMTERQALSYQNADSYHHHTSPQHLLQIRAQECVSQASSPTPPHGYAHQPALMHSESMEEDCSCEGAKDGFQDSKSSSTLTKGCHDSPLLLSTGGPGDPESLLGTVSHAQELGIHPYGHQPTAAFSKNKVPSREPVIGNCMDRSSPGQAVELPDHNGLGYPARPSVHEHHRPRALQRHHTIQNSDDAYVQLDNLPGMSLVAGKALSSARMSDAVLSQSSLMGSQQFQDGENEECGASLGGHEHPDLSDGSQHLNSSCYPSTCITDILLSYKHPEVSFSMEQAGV
How it was run: as §1

T1 sequence (Q9H0K1 whole entry): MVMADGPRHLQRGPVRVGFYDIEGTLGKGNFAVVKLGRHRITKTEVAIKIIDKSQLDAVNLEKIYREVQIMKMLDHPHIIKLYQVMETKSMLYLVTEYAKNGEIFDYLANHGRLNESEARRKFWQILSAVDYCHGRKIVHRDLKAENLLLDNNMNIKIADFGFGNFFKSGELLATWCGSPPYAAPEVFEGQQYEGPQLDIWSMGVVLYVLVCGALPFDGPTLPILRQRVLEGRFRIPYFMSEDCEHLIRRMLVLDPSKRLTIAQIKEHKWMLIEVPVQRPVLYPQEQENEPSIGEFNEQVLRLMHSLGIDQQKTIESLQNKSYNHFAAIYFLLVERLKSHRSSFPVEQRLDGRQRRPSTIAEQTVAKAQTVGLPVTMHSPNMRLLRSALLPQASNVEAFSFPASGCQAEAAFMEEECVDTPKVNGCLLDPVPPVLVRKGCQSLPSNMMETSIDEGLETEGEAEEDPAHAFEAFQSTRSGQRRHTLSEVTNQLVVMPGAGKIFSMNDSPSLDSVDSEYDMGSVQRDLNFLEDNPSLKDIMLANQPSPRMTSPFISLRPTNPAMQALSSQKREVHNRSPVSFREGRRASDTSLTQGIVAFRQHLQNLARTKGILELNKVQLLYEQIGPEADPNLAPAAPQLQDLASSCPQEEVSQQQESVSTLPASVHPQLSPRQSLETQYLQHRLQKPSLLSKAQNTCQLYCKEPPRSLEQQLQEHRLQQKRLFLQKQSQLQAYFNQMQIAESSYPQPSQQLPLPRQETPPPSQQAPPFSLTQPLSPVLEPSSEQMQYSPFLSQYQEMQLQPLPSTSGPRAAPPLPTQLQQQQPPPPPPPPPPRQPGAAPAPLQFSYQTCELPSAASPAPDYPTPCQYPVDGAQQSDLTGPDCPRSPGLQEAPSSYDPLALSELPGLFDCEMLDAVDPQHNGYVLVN

| Structure (SMILES) | IC50 [1] [nM] | IL-10 FCmax median [2] | IC50 [3] [nM] |
| --- | --- | --- | --- |
| COc1cc(-c2cnc3cc(OCCN4CCOCC4)ccn23)cc2c1C(=O)N(CC(F)F)CC2 [compound 218, 2-(2,2-difluoroethyl)-8-methoxy-6-[7-(2-morpholinoethoxy)imidazo [1,2-a]pyridin-3-yl]-3,4-dihydroisoquinolin-1-one] | 0.01 to 10 | ++ (>1.5-4.5) | 0.01 to 10 |
| COc1cc(-c2cnc3cc(OCCN4CCOC[C@@H]4C)ccn23)cc2c1C(=O)N(CC(F)(F)F)CC2 [Cpd 257, 8-methoxy-6-[7-[2-[(3S)-3-methylmorpholin-4-yl]ethoxy]imidazo[1,2-a]pyridin-3-yl]-2-(2,2,2-trifluoroethyl)-3,4-dihydroisoquinolin-1-one] | 10 to 100 | ++ (>1.5-4.5) | 0.01 to 10 |
| COc1cc(-c2cnc3cc(OCCN4CCCCC4)ccn23)cc2c1C(=O)N(CC(F)(F)F)CC2 [compound 40, 8-methoxy-6-[7-[2-(1-piperidyl)ethoxy]imidazo [1,2-a]pyridin-3-yl]-2-(2,2,2-trifluoroethyl)-3,4-dihydroisoquinolin-1-one] | 0.01 to 10 | ++ (>1.5-4.5) | 0.01 to 10 |
| COc1cc(-c2cnc3cc(OCC4CN(C)CCO4)ccn23)cc2c1C(=O)N(CC(F)(F)F)CC2 (stereo not drawn) [compound 127, 8-methoxy-6-[7-[(4-methylmorpholin-2-yl)methoxy]imidazo[1,2-a]pyridin-3-yl]-2-(2,2,2-trifluoroethyl)-3,4-dihydroisoquinolin-1-one] | 0.01 to 10 | ++ (>1.5-4.5) | 0.01 to 10 |
| COc1cc(-c2cnc3cc(OC[C@H]4COCCO4)ccn23)cc2c1C(=O)N(CC(F)(F)F)CC2 [Cpd 86, 6-[7-[[(2R)-1,4-dioxan-2-yl]methoxy]imidazo[1,2-a]pyridin-3-yl]-8-methoxy-2-(2,2,2-trifluoroethyl)-3,4-dihydroisoquinolin-1-one] | 10 to 100 | ++ (>1.5-4.5) | 0.01 to 10 |
| COc1cc(-c2cnc3cc(OCCN(C)C)ccn23)cc2c1C(=O)N(CC(F)F)CC2 [compound 54, 2-(2,2-difluoroethyl)-6-[7-[2-(dimethylamino)ethoxy]imidazo [1,2-a]pyridin-3-yl]-8-methoxy-3,4-dihydro isoquinolin-1-one] | 0.01 to 10 | ++ (>1.5-4.5) | 10 to 100 |
| COc1cc(-c2cnc3cc(OCC4(F)CN(C)C4)ccn23)cc2c1C(=O)N(CC(F)(F)F)CC2 [compound 252, 6-[7-[(3-fluoro-1-methyl-azetidin-3-yl)methoxy]imidazo[1,2-a]pyridin-3-yl]-8-methoxy-2-(2,2,2-trifluoroethyl)-3,4-dihydro isoquinolin-1-one] | 0.01 to 10 | ++ (>1.5-4.5) | 0.01 to 10 |
| COc1cc(-c2cnc3cc(OC[C@H]4CCCN4C)ccn23)cc(OC(F)F)c1C(=O)NC1CC1 [compound 81, N-cyclopropyl-2-(difluoromethoxy)-6-methoxy-4-[7-[[(2R)-1-methylpyrrolidin-2-yl]methoxy]imidazo[1,2-a]pyridin-3-yl]benzamide] | 0.01 to 10 | ++ (>1.5-4.5) | 0.01 to 10 |
| CCOC(=O)C1(F)CCN(CC(O)COc2ccn3c(-c4cc(OC)c(C(=O)NC5CC5)c(OC(F)F)c4)cnc3c2)CC1 (stereo not drawn) [compound 384, ethyl 1-[3-[3-[4-(cyclopropylcarbamoyl)-3-(difluoromethoxy)-5-methoxy-phenyl]imidazo[1,2-a]pyridin-7-yl]oxy-2-hydroxy-propyl]-4-fluoro-piperidine-4-carboxylate] | 0.01 to 10 | ++ (>1.5-4.5) | 0.01 to 10 |
| COc1cc(-c2cnc3cc(OCC4(C)CN(C)C4)ccn23)cc(OC(F)F)c1C(=O)NC1CC1 [compound 220, N-cyclopropyl-2-(difluoromethoxy)-4-[7-[(1,3-dimethylazetidin-3-yl)methoxy]imidazo[1,2-a]pyridin-3-yl]-6-methoxy-benzamide] | 0.01 to 10 | ++ (>1.5-4.5) | 0.01 to 10 |
| COc1cc(-c2cnc3cc(OC[C@@H]4CN(C)CCO4)ccn23)cc2c1C(=O)N(CC(F)(F)F)CC2 [compound 191, 8-methoxy-6-[7-[[(2S)-4-methylmorpholin-2-yl]methoxy]imidazo [1,2-a]pyridin-3-yl]-2-(2,2,2-trifluoroethyl)-3,4-dihydroisoquinolin-1-one] | 0.01 to 10 | ++ (>1.5-4.5) | 0.01 to 10 |
| COc1cc(-c2cnc3cc(OCCC4CCCN4C)ccn23)cc(OC(F)F)c1C(=O)NC1CC1 (stereo not drawn) [compound 17, N-cyclopropyl-2-(difluoromethoxy)-6-methoxy-4-[7-[2-(1-methylpyrrolidin-2-yl)ethoxy]imidazo[1,2-a]pyridin-3-yl]benzamide] | 0.01 to 10 | ++ (>1.5-4.5) | 0.01 to 10 |
| COc1cc(-c2cnc3cc(OC[C@H]4COCCO4)ccn23)cc2c1C(=O)N(CC(F)F)CC2 [compound 219, 2-(2,2-difluoroethyl)-6-[7-[[(2R)-1,4-dioxan-2-yl]methoxy]imidazo[1,2-a]pyridin-3-yl]-8-methoxy-3,4-dihydroisoquinolin-1-one] | 0.01 to 10 | ++ (>1.5-4.5) | 0.01 to 10 |
| COc1cc(-c2cnc3cc(OCCCN4CC(O)C4)ccn23)cc(OC(F)F)c1C(=O)NC1CC1 [Cpd 286, N-cyclopropyl-2-(difluoromethoxy)-4-[7-[3-(3-hydroxyazetidin-1-yl)propoxy]imidazo[1,2-a]pyridin-3-yl]-6-methoxy-benzamide] | 0.01 to 10 | ++ (>1.5-4.5) | 0.01 to 10 |
| COc1cc(-c2cnc3cc(OC(C)C(F)(F)F)ccn23)cc(OC(F)F)c1C(=O)NC1CC1 (stereo not drawn) [compound 45, N-cyclopropyl-2-(difluoromethoxy)-6-methoxy-4-[7-(2,2,2-trifluoro-1-methyl-ethoxy)imidazo[1,2-a]pyridin-3-yl]benzamide] | 10 to 100 | + (≤1.5) | 0.01 to 10 |
| CCN(CC)CCOc1ccn2c(-c3cc(OC)c(C(=O)NC4CC4)c(OC(F)F)c3)cnc2c1 [compound 107, N-cyclopropyl-4-[7-[2-(diethylamino)ethoxy]imidazo[1,2-a]pyridin-3-yl]-2-(difluoromethoxy)-6-methoxy-benzamide] | 0.01 to 10 | + (≤1.5) | 0.01 to 10 |
| COc1cc(-c2cnc3cc(OCCN4CCOC[C@@H]4C)ccn23)cc(OC(F)F)c1C(=O)NC1CC1 [compound 233, N-cyclopropyl-2-(difluoromethoxy)-6-methoxy-4-[7-[2-[(3S)-3-methylmorpholin-4-yl]ethoxy]imidazo[1,2-a]pyridin-3-yl]benzamide] | 0.01 to 10 | ++ (>1.5-4.5) | 0.01 to 10 |
| COc1cc(-c2cnc3cc(OCC4CN(C)C4)ccn23)cc2c1C(=O)N(CC(F)(F)F)CC2 [compound 39, 8-methoxy-6-[7-[(1-methylazetidin-3-yl)methoxy]imidazo[1,2-a]pyridin-3-yl]-2-(2,2,2-trifluoroethyl)-3,4-dihydro isoquinolin-1-one] | 0.01 to 10 | ++ (>1.5-4.5) | 0.01 to 10 |
